# ChEMBL document CHEMBL5055685, “Discovery of the First Potent IDO1/IDO2 Dual Inhibitors: A Promising Strategy for Cancer Immunotherapy” (J Med Chem, 2021)
# Active and inactive are the calls of the source. No cut-off for these calls is given here.
# Tests used:
# [1] = biological target: T1, Indoleamine 2,3-dioxygenase 2 (Homo sapiens) (UniProt Q6ZQW0); assay: Inhibition of IDO2 (unknown origin) assessed as reduction in kynurenine formation using L-tryptophan as substrate by methylene blue reagent based assay relative to control; set-up: concentration or dose not given beside the values; details: concentration not given here
# T1 sequence (whole entry): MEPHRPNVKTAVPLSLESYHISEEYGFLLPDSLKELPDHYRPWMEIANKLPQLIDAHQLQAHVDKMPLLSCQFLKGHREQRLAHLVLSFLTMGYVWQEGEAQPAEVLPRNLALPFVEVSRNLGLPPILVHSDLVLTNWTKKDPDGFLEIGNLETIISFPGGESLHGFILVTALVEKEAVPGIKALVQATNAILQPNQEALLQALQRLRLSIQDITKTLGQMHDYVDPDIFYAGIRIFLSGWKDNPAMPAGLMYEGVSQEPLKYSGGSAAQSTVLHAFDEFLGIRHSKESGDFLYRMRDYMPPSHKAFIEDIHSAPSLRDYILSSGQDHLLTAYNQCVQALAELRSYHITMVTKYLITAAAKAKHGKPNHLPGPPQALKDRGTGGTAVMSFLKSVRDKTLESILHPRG
# [2] = biological target: T2, Indoleamine 2,3-dioxygenase 1 (Homo sapiens, UniProt P14902); assay: Inhibition of IDO1 (unknown origin) assessed as reduction in kynurenine formation using L-tryptophan as substrate by methylene blue reagent based assay relative to control; set-up: concentration or dose not given beside the values; details: concentration not given here
# Target sequence in this assay (P14902 whole entry, looked up): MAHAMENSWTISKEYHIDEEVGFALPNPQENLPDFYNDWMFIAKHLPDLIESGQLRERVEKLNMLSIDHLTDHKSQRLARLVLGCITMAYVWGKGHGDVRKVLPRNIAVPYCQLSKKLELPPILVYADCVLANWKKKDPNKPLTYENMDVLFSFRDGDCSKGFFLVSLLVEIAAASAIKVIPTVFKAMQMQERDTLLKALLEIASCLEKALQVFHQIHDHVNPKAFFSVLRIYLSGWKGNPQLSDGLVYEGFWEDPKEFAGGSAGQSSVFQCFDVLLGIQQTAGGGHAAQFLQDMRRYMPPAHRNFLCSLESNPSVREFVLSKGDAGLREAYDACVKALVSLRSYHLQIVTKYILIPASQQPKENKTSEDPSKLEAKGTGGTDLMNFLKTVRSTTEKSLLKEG
# [3] = biological target: T3, Indoleamine 2,3-dioxygenase 2 (Homo sapiens, UniProt Q6ZQW0); assay: Inhibition of IDO2 (unknown origin) assessed as reduction in kynurenine formation using L-tryptophan as substrate by methylene blue reagent based assay
# T3 sequence (Q6ZQW0 whole entry): T1 sequence (whole entry)
# [4] = biological target: T2, Indoleamine 2,3-dioxygenase 1; assay: Inhibition of IDO1 (unknown origin) assessed as reduction in kynurenine formation using L-tryptophan as substrate by methylene blue reagent based assay
# Target sequence in this assay (P14902 whole entry): as the sequence (P14902 whole entry, looked up) above
# [5] = test system: CT26; assay: Antitumor activity against mouse CT26 cells implanted in BALB/c mouse assessed as tumor growth inhibition at 50 mg/kg, ip bid for 28 days by vernier caliper method relative to control; type: functional; details: CT26, 672 h, time 28 day, read-out: TGI
# [6] = Tmax in Sprague-Dawley rat at 50 mg/kg, po; type: ADME, organism-based; details: in vivo
# [7] = Intrinsic clearance in monkey liver microsomes; type: ADME, Macaca mulatta, Microsome; details: rhesus monkey, read-out: CLH
# [8] = Protein binding in ICR mouse plasma assessed as fraction unbound by equilibrium dialysis; type: ADME, cell-free
# [9] = Intrinsic clearance in human liver microsomes; type: ADME, Microsome; details: read-out: CLH
# [10] = Apparent permeability across apical to basolateral side in human Caco-2 cells assessed as drug recovery; type: ADME, cell-based; details: read-out: Drug recovery
# [11] = test system: HeLa; assay: Cytotoxicity against human HeLa cells assessed as reduction in cell viability at 1 to 10 uM by CCK8 assay; type: functional, cell-based; details: dose 1-10 µM
# [12] = Half life in Sprague-Dawley rat at 5 mg/kg, iv; type: ADME, organism-based; details: in vivo
# [13] = Half life in mouse liver microsomes; type: ADME, Microsome
# [14] = biological target: Voltage-gated inwardly rectifying potassium channel KCNH2 (Homo sapiens, UniProt Q12809); assay: Inhibition of human ERG
# Sequence of Voltage-gated inwardly rectifying potassium channel KCNH2 (Q12809 whole entry): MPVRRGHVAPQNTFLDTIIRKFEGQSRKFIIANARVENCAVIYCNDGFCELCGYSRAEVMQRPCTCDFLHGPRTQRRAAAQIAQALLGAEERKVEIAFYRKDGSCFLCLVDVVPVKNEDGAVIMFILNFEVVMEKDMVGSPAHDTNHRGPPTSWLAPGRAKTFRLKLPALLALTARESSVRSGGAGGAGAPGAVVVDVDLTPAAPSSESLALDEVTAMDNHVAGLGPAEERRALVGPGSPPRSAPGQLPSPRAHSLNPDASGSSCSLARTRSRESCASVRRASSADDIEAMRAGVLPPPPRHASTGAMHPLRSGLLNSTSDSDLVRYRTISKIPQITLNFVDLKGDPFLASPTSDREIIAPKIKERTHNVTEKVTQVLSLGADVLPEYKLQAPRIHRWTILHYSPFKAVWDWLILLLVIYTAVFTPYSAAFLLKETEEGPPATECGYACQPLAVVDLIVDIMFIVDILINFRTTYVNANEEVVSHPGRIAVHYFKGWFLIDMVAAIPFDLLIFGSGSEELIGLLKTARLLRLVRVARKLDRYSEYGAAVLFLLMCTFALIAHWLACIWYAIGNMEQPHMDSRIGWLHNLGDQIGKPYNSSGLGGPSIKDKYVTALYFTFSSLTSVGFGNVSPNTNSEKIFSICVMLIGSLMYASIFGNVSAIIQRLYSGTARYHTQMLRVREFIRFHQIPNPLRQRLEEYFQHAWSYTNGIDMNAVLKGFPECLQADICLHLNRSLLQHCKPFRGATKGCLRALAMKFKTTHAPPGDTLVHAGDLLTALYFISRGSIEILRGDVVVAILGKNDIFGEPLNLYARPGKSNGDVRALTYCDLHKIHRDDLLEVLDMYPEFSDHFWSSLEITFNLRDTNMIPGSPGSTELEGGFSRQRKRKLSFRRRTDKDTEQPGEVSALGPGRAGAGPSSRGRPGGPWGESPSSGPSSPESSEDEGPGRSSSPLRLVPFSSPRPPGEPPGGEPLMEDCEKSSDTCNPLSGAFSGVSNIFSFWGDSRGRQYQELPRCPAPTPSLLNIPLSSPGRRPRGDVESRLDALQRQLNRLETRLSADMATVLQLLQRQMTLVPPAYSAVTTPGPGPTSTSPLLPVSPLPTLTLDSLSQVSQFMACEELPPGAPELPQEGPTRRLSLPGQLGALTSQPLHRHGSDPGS
# [15] = Protein binding in monkey plasma assessed as fraction unbound by equilibrium dialysis; type: ADME, cell-free, Macaca mulatta; details: rhesus monkey
# [16] = Protein binding in ICR mouse plasma by equilibrium dialysis; type: ADME, cell-free; details: read-out: PPB (converted)
# [17] = Metabolic stability in dog liver microsomes assessed as rate constant; type: ADME, Canis lupus familiaris, Microsome
# [18] = Protein binding in Sprague-Dawley rat plasma assessed as fraction unbound by equilibrium dialysis; type: ADME, cell-free
# [19] = Clearance in mouse liver microsomes; type: ADME, Microsome; details: read-out: CLH
# [20] = Protein binding in Beagle dog plasma by equilibrium dialysis; type: ADME, cell-free, Canis lupus familiaris; details: read-out: PPB (converted)
# [21] = test system: HCT-116; assay: Cytotoxicity against human HCT-116 cells assessed as reduction in cell viability by CCK8 assay; type: functional, cell-based
# [22] = Half life in monkey liver microsomes; type: ADME, Macaca mulatta, Microsome; details: rhesus monkey
# [23] = AUC (0 to infinity) in Sprague-Dawley rat at 5 mg/kg, iv; type: ADME, organism-based; set-up: time infinity, dose 5 mg/kg, route iv; details: in vivo
# [24] = Metabolic stability in mouse liver microsomes assessed as rate constant; type: ADME, Microsome
# [25] = Apparent permeability across basolateral to apical side in human Caco-2 cells; type: ADME, cell-based
# [26] = test system: PBMC; assay: Inhibition of IDO1/IDO2 in IFNgamma/LPS-stimulated human PBMCs assessed as reduction in kynurenine formation at 0.0001 to 10 uM pretreated with compound for 15 mins followed by IFNgamma/LPS stimulation by LC-MS/MS analysis; type: tissue-based; details: dose 0.0001-10 µM
# [27] = Clearance in rat liver microsomes; type: ADME, Microsome; details: read-out: CLH
# [28] = Protein binding in monkey plasma by equilibrium dialysis by equilibrium dialysis; type: ADME, cell-free, Macaca mulatta; details: rhesus monkey, read-out: PPB (converted)
# [29] = Protein binding in Beagle dog plasma assessed as fraction unbound by equilibrium dialysis; type: ADME, cell-free, Canis lupus familiaris
# [30] = test system: Mus musculus; assay: Toxicity in BALB/c mouse implanted with mouse CT26 cells assessed as adverse effect at 50 mg/kg, ip bid for 28 days; type: organism-based; details: in vivo, 672 h, time 28 day
# [31] = Efflux ratio of apparent permeability across basolateral to apical over apical to basolateral side in human Caco-2 cells; type: ADME, cell-based
# [32] = Half life in human liver microsomes; type: ADME, Microsome
# [33] = Protein binding in human plasma by equilibrium dialysis; type: ADME, cell-free; details: read-out: PPB (converted)
# [34] = Toxicity in rat assessed as maximum tolerated dose; type: organism-based; details: in vivo
# [35] = Oral bioavailability in Sprague-Dawley rat at 50 mg/kg; type: ADME, organism-based; details: in vivo
# [36] = test system: CT26; assay: Cytotoxicity against mouse CT26 cells assessed as reduction in cell viability by CCK8 assay; type: functional, cell-based
# [37] = Half life in Sprague-Dawley rat at 50 mg/kg, po; type: ADME, organism-based; details: in vivo
# [38] = AUC (0 to infinity) in Sprague-Dawley rat at 50 mg/kg, po; type: ADME, organism-based; set-up: time infinity, dose 50 mg/kg, route po; details: in vivo
# [39] = Cmax in Sprague-Dawley rat at 50 mg/kg, po; type: ADME, organism-based; set-up: dose 50 mg/kg, route po; details: in vivo
# [40] = test system: HT-29; assay: Cytotoxicity against human HT-29 cells assessed as reduction in cell viability by CCK8 assay; type: functional, cell-based
# [41] = Metabolic stability in rat liver microsomes assessed as rate constant; type: ADME, Microsome
# [42] = Metabolic stability in human liver microsomes assessed as rate constant; type: ADME, Microsome
# [43] = Protein binding in human plasma assessed as fraction unbound by equilibrium dialysis; type: ADME, cell-free
# [44] = Clearance in dog liver microsomes; type: ADME, Canis lupus familiaris, Microsome; details: read-out: CLH
# [45] = test system: Mus musculus; assay: Toxicity in BALB/c mouse implanted with mouse CT26 cells assessed as weight loss at 50 mg/kg, ip bid for 28 days; type: organism-based; details: in vivo, 672 h, time 28 day
# [46] = AUC (0 to t) in Sprague-Dawley rat at 50 mg/kg, po; type: ADME, organism-based; set-up: dose 50 mg/kg, route po; details: in vivo
# [47] = AUC (0 to t) in Sprague-Dawley rat at 5 mg/kg, iv; type: ADME, organism-based; set-up: dose 5 mg/kg, route iv; details: in vivo
# [48] = Protein binding in Sprague-Dawley rat plasma by equilibrium dialysis; type: ADME, cell-free; details: read-out: PPB (converted)
# [49] = Half life in rat liver microsomes; type: ADME, Microsome
# [50] = Apparent permeability across basolateral to apical side in human Caco-2 cells assessed as drug recovery; type: ADME, cell-based; details: read-out: Drug recovery
# [51] = Volume of distribution at steady state in Sprague-Dawley rat at 5 mg/kg, iv; type: ADME, organism-based; details: in vivo, read-out: Vdss
# [52] = test system: Rattus norvegicus; assay: Toxicity in rat assessed as weight loss at […]; type: organism-based; details: in vivo
# [53] = Metabolic stability in monkey liver microsomes assessed as rate constant; type: ADME, Macaca mulatta, Microsome; details: rhesus monkey
# [54] = test system: Rattus norvegicus; assay: Toxicity in rat assessed as rat death at […]; type: organism-based; details: in vivo
# [55] = Apparent permeability across apical to basolateral side in human Caco-2 cells; type: ADME, cell-based
# [56] = Half life in dog liver microsomes assessed as rate constant; type: ADME, Canis lupus familiaris, Microsome
smiles,measurement,setting,value
Cc1ccc(-c2cn(CCNc3nonc3/C(=N/O)Nc3ccc(F)c(Br)c3)nn2)cc1,inhibition,[1],14%
same,inhibition,[2],12%
OCCCc1cn(CCNc2nonc2/C(=N/O)Nc2ccc(F)c(Br)c2)nn1,IC50,[3],958 nM
same,IC50,[4],98 nM
CC(C)(OCCO)c1cn(CCNc2nonc2/C(=N/O)Nc2ccc(F)c(Br)c2)nn1,IC50,[3],1170 nM
same,IC50,[4],176 nM
CC(O)c1cn(CCNc2nonc2/C(=N/O)Nc2ccc(F)c(Br)c2)nn1 (centres undefined),inhibition in vivo at 50 mg/kg,[5],66.3%
same,Tmax,[6],25.2 min
same,microsomal CLint,[7],20.2 µL/min/mg
same,fraction unbound,[8],0.0584
same,microsomal CLint,[9],5.22 µL/min/mg
same,recovery,[10],95.5%
same,Activity,[11],Active
same,half-life,[12],48 min
same,half-life,[13],41.2 min
same,IC50,[14],> 30000 nM
same,IC50,[3],362 nM
same,fraction unbound,[15],0.0371
same,fraction unbound,[16],0.0584
same,k el,[17],0.00218 s⁻¹
same,fraction unbound,[18],0.044
same,microsomal CLint,[19],33.6 µL/min/mg
same,fraction unbound,[20],0.0239
same,IC50,[21],23700 nM
same,half-life,[22],68.8 min
same,AUC,[23],5670 ng·h/mL
same,K,[24],0.0168 min⁻¹
same,Papp B→A,[25],80.9 ×10⁻⁶ cm/s
same,inhibition,[26],Active
same,microsomal CLint,[27],64.2 µL/min/mg
same,fraction unbound,[28],0.0371
same,fraction unbound,[29],0.0239
same,Activity,[30],Non-Toxic
same,IC50,[4],53 nM
same,efflux ratio,[31],5.9
same,half-life,[32],272 min
same,fraction unbound,[33],0.0192
same,MTD,[34],2 mg/kg
same,bioavailability,[35],20.4%
same,IC50,[36],27500 nM
same,half-life,[37],78 min
same,AUC(0-inf),[38],11500 ng·h/mL
same,Cmax,[39],2730 ng/mL
same,IC50,[40],46000 nM
same,k el,[41],0.00218 s⁻¹
same,k el,[42],4.35e-05 s⁻¹
same,fraction unbound,[43],0.0192
same,microsomal CLint,[44],261 µL/min/mg
same,Activity,[45],Non-Toxic
same,AUC(0-t),[46],11300 ng·h/mL
same,AUC(0-t),[47],5590 ng·h/mL
same,fraction unbound,[48],0.04
same,half-life,[49],21.6 min
same,recovery,[50],116%
same,Vd,[51],1.2 L/kg
same,Activity,[52],Non-Toxic
same,k el,[53],0.000168 s⁻¹
same,Activity,[54],Non-Toxic
same,Papp A→B,[55],13.8 ×10⁻⁶ cm/s
same,half-life,[56],5.31 min
OCCc1cn(CCNc2nonc2/C(=N/O)Nc2ccc(F)c(Br)c2)nn1,IC50,[3],1170 nM
same,IC50,[4],247 nM
CCC(C)(O)c1cn(CCNc2nonc2/C(=N/O)Nc2ccc(F)c(Br)c2)nn1 (centres undefined),IC50,[3],958 nM
same,IC50,[4],53 nM
